Test results: patent US11000033B2, “Ketone or oxime compound, and herbicide” (NISSAN CHEMICAL CORPORATION, priority 2014, dated 2021)

What was measured:
Format in all cases: in vivo
Stellaria media = assay: Test Example 5: herbicidal effect by foliage application, plastic box (symbol P); settings: 320 g/ha, 3 weeks after application
In short: (§1)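 Herbicide, formulated as an emulsion and diluted in water, is sprayed onto the aerial parts of 14-day seedlings. These were grown at 25° C. to 30° C. in sterilized diluvial soil; effects are graded after 3 weeks.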

Apera spica-venti = assay: Test Example 5: herbicidal effect by foliage application, plastic box (symbol L); settings: 320 g/ha, 3 weeks after application
In short: as §1

Cyperus difformis = assay: Test Example 3: herbicidal effect by foliage application, Wagner pot (symbol E); settings: application herbicide amount 320 g/ha
In short: (§2)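 Herbicidal activity was rated three weeks after a foliar spray of diluted emulsion concentrate, applied at a predetermined dose to plants grown for 14 days from seed in waterlogged alluvial soil within a 25–30 °C greenhouse.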

Lolium multiflorum Lam. [1] = assay: Test Example 5: herbicidal effect by foliage application, plastic box (symbol K); settings: 320 g/ha, 3 weeks after application
In short: as §1

Abutilon theophrasti [2] = assay: Test Example 4: herbicidal effect by soil treatment (symbol M); settings: 320 g/ha
In short: (§3)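 Seeds were sown in sterilized diluvial soil, covered with about 1.5 cm of soil, and the soil surface was sprayed with a water-diluted emulsion of the compound at a predetermined rate. Plants grew in a greenhouse at 25° C. to 30° C.; effects were scored visually 3 weeks after application.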

wheat = assay: Test Example 5: effect on crop by foliage application, plastic box (symbol e); settings: 320 g/ha, 3 weeks after application
In short: (§4)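 Soil: sterilized diluvial. Container: plastic box, 21 × 13 cm, 7 cm deep. Sowing: spot-like, ~1.5 cm cover. Growth: greenhouse, 25° C. to 30° C.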

rapeseed = assay: Test Example 5: effect on crop by foliage application, plastic box (symbol g); settings: 320 g/ha, 3 weeks after application
In short: as §4

Abutilon theophrasti [3] = assay: Test Example 5: herbicidal effect by foliage application, plastic box (symbol M); settings: 320 g/ha, 3 weeks after application
In short: as §1

Avena fatua = assay: Test Example 5: herbicidal effect by foliage application, plastic box (symbol I); settings: 320 g/ha, 3 weeks after application
In short: as §1

Chenopodium album = assay: Test Example 5: herbicidal effect by foliage application, plastic box (symbol O); settings: 320 g/ha, 3 weeks after application
In short: as §1

Digitaria ciliaris = assay: Test Example 4: herbicidal effect by soil treatment (symbol F); settings: 320 g/ha
In short: as §3

Leptochloa chinensis = assay: Test Example 3: herbicidal effect by foliage application, Wagner pot (symbol D); settings: application herbicide amount 320 g/ha
In short: as §2

[4] = system: directly sowed rice plant; assay: Test Example 3: effect on crop by foliage application, Wagner pot (symbol b); settings: application herbicide amount 320 g/ha
In short: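 Greenhouse culture at 25–30 °C of seeded rice, Cyperus difformis, Leptochloa chinensis and Echinochloa crus-galli var. crus-galli, in alluvial soil held under 0.1–0.5 cm of water in a Wagner pot.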

soybean = assay: Test Example 4: effect on crop by soil treatment (symbol d); settings: 320 g/ha
In short: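 Soil-treatment setup: crop and weed seeds were spot-sown into sterilized diluvial soil, then buried beneath approximately 1.5 cm of it, and the boxes were housed in a 25–30° C. greenhouse.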

Amaranthus retroflexus = assay: Test Example 4: herbicidal effect by soil treatment (symbol N); settings: 320 g/ha
In short: as §3

Setaria viridis = assay: Test Example 5: herbicidal effect by foliage application, plastic box (symbol G); settings: 320 g/ha, 3 weeks after application
In short: as §1

Lolium multiflorum Lam. [5] = assay: Test Example 4: herbicidal effect by soil treatment (symbol K); settings: 320 g/ha
In short: as §3

corn [6] = assay: Test Example 5: effect on crop by foliage application, plastic box (symbol c); settings: 320 g/ha, 3 weeks after application
In short: as §4

[7] = system: Echinochloa crus-galli var. crus-galli; assay: Test Example 4: herbicidal effect by soil treatment (symbol H); settings: 320 g/ha
In short: as §3

beet = assay: Test Example 5: effect on crop by foliage application, plastic box (symbol f); settings: 320 g/ha, 3 weeks after application
In short: as §4

corn [8] = assay: Test Example 4: effect on crop by soil treatment (symbol c); settings: 320 g/ha
In short: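 Plants are raised in a greenhouse (25° C. to 30° C.) from spot-sown seed, which sits under about 1.5 cm of sterilized diluvial soil in a box shared with weed species.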

SMILES | P: Stellaria media, herbicidal effect (criteria 0-5) (Stellaria media) | L: Apera spica-venti, herbicidal effect (criteria 0-5) (Apera spica-venti) | herbicidal effect on E, grade 0-5 (Cyperus difformis) | K: Lolium multiflorum Lam., herbicidal effect (criteria 0-5) (Lolium multiflorum Lam. [1]) | M: Abutilon theophrasti, herbicidal effect grade (Abutilon theophrasti [2]) | e: wheat, effect on crop (criteria 0-5) (wheat) | g: rapeseed, effect on crop (criteria 0-5) (rapeseed) | M: Abutilon theophrasti, herbicidal effect (criteria 0-5) (Abutilon theophrasti [3]) | I: Avena fatua, herbicidal effect (criteria 0-5) (Avena fatua) | O: Chenopodium album, herbicidal effect (criteria 0-5) (Chenopodium album) | F: Digitaria ciliaris, herbicidal effect grade (Digitaria ciliaris) | herbicidal effect on D (Leptochloa chinensis), grade 0-5 (Leptochloa chinensis) | effect on crop b (directly sowed rice plant), grade 0-5 [4] | d: soybean, effect grade on crop (soybean) | N: Amaranthus retroflexus, herbicidal effect grade (Amaranthus retroflexus) | G: Setaria viridis, herbicidal effect (criteria 0-5) (Setaria viridis) | K: Lolium multiflorum Lam., herbicidal effect grade (Lolium multiflorum Lam. [5]) | c: corn, effect on crop (criteria 0-5) (corn [6]) | H: Echinochloa crus-galli var. crus-galli, herbicidal effect grade [7] | f: beet, effect on crop (criteria 0-5) (beet) | other results
C=CCN(CC=C)C(=O)OC1=C(c2c(C)cc(C)cc2C)C(=O)C(CC(C)=NOC)C1 (stereo not drawn) [1-153] | 0 (Herbicidal ratio of 5% or lower (almost no effect)) | 5 (Herbicidal ratio of 90% or more (almost completely withered)) | 4 (Herbicidal ratio of 70% or higher and lower than 90%) | 5 (Herbicidal ratio of 90% or more (almost completely withered)) | 0 (Herbicidal ratio of 5% or lower (almost no effect)) | 5 (Herbicidal ratio of 90% or more (almost completely withered)) | 4 (Herbicidal ratio of 70% or higher and lower than 90%) | 4 (Herbicidal ratio of 70% or higher and lower than 90%) | 5 (Herbicidal ratio of 90% or more (almost completely withered)) | 0 (Herbicidal ratio of 5% or lower (almost no effect)) | 5 (Herbicidal ratio of 90% or more (almost completely withered)) | 5 (Herbicidal ratio of 90% or more (almost completely withered)) | 5 (Herbicidal ratio of 90% or more (almost completely withered)) | 0 (Herbicidal ratio of 5% or lower (almost no effect)) | 0 (Herbicidal ratio of 5% or lower (almost no effect)) | 5 (Herbicidal ratio of 90% or more (almost completely withered)) | 4 (Herbicidal ratio of 70% or higher and lower than 90%) | 3 (Herbicidal ratio of 40% or higher and lower than 70%) | 0 (Herbicidal ratio of 5% or lower (almost no effect)) | 0 (Herbicidal ratio of 5% or lower (almost no effect)) | c: corn, effect grade on crop (corn [8]): 0 (Herbicidal ratio of 5% or lower (almost no effect))
CON=C(C)CC1CC(OC(=O)c2ccccc2C(F)(F)F)=C(c2c(C)cc(C)cc2C)C1=O (stereo not drawn) [1-154] | 2 (Herbicidal ratio of 20% or higher and lower than 40%) | 5 (Herbicidal ratio of 90% or more (almost completely withered)) | 5 (Herbicidal ratio of 90% or more (almost completely withered)) | 5 (Herbicidal ratio of 90% or more (almost completely withered)) | 4 (Herbicidal ratio of 70% or higher and lower than 90%) | 5 (Herbicidal ratio of 90% or more (almost completely withered)) | 4 (Herbicidal ratio of 70% or higher and lower than 90%) | 4 (Herbicidal ratio of 70% or higher and lower than 90%) | 5 (Herbicidal ratio of 90% or more (almost completely withered)) | 1 (Herbicidal ratio of 5% or higher and lower than 20%) | 5 (Herbicidal ratio of 90% or more (almost completely withered)) | 5 (Herbicidal ratio of 90% or more (almost completely withered)) | 5 (Herbicidal ratio of 90% or more (almost completely withered)) | 0 (Herbicidal ratio of 5% or lower (almost no effect)) | 4 (Herbicidal ratio of 70% or higher and lower than 90%) | 5 (Herbicidal ratio of 90% or more (almost completely withered)) | 5 (Herbicidal ratio of 90% or more (almost completely withered)) | 3 (Herbicidal ratio of 40% or higher and lower than 70%) | 5 (Herbicidal ratio of 90% or more (almost completely withered)) | 1 (Herbicidal ratio of 5% or higher and lower than 20%) | c: corn, effect grade on crop (corn [8]): 0 (Herbicidal ratio of 5% or lower (almost no effect))
CON=C(C)CC1CC(OC(=O)c2ccccc2OC(F)(F)F)=C(c2c(C)cc(C)cc2C)C1=O (stereo not drawn) [1-155] | 2 (Herbicidal ratio of 20% or higher and lower than 40%) | 5 (Herbicidal ratio of 90% or more (almost completely withered)) | 5 (Herbicidal ratio of 90% or more (almost completely withered)) | 5 (Herbicidal ratio of 90% or more (almost completely withered)) | 5 (Herbicidal ratio of 90% or more (almost completely withered)) | 5 (Herbicidal ratio of 90% or more (almost completely withered)) | 4 (Herbicidal ratio of 70% or higher and lower than 90%) | 4 (Herbicidal ratio of 70% or higher and lower than 90%) | 5 (Herbicidal ratio of 90% or more (almost completely withered)) | 0 (Herbicidal ratio of 5% or lower (almost no effect)) | 5 (Herbicidal ratio of 90% or more (almost completely withered)) | 5 (Herbicidal ratio of 90% or more (almost completely withered)) | 5 (Herbicidal ratio of 90% or more (almost completely withered)) | 0 (Herbicidal ratio of 5% or lower (almost no effect)) | 5 (Herbicidal ratio of 90% or more (almost completely withered)) | 5 (Herbicidal ratio of 90% or more (almost completely withered)) | 5 (Herbicidal ratio of 90% or more (almost completely withered)) | 4 (Herbicidal ratio of 70% or higher and lower than 90%) | 5 (Herbicidal ratio of 90% or more (almost completely withered)) | 2 (Herbicidal ratio of 20% or higher and lower than 40%) | c: corn, effect grade on crop (corn [8]): 3 (Herbicidal ratio of 40% or higher and lower than 70%)
